Test results reported in patent publication US8168656B2, “Indoleacetic acid and indenacetic acid derivatives as therapeutic agents with reduced gastrointestinal toxicity” (Vanderbilt University, priority 2009, dated 2012).
Substitutions are numbered along the chain they refer to.

Legend:
mCOX-2^V349L = target: T1, mCOX-2^V349L (Mus musculus, UniProt Q05769, V335L); test: Steady-state quenching of COX intrinsic fluorescence (apo-protein); assay type: binding, murine
T1 construct: made in house; host or cells: Sf9 insect cells (baculovirus, pVL1393)
T1 sequence (Q05769 18-604 V335L): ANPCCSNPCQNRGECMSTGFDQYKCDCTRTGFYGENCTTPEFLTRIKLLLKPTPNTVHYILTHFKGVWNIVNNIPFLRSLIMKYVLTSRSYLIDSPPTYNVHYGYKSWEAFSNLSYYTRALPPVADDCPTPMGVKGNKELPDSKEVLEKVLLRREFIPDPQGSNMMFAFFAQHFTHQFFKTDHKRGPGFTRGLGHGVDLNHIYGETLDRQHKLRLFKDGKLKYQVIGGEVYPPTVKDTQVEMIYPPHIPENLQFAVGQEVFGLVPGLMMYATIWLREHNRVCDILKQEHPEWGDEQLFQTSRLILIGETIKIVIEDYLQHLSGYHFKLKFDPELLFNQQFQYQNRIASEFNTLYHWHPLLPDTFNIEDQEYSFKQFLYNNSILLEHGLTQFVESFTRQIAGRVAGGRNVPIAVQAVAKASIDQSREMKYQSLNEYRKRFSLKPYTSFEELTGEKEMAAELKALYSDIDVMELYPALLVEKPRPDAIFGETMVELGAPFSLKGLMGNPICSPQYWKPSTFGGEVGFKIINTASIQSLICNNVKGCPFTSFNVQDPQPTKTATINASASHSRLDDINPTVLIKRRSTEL
Protocol: (§1) Steady-state measurements were performed at 37° C. in a 3.5 ml fluorescence cuvette with continuous stirring. […] Data were collected over 240 or 360 seconds with 2-second integration times. The reversibility of quenching was analyzed in the same manner, with subsequent addition of 50 μM AA as competitor. The ligands were dissolved in DMSO before further dilution into buffer. The organic component in the buffer was below 0.4%.
(§2) This assay provided a method to directly monitor the binding of INDO and DM-INDO to COXs. Various concentrations of INDO and DM-INDO were added to apo-proteins and the rate of fluorescence decrease was monitored over time. After the mixture reached equilibrium, 50 μM of AA was added as competitor to monitor the reversibility of binding. The kinetic data for quenching were analyzed in the same manner as those for inhibition. For clarity, the equilibrium constant for the first step of fluorescence quenching is referred to as Kd, and k2 and k−2 from the second step of quenching are represented by k′2 and k′−2, respectively.

mCOX-2^V349I [1] = target: T2, mCOX-2^V349I (Mus musculus, UniProt Q05769, V335I); test: as above; assay type: binding, murine
T2 construct: made in house; host or cells: Sf9 insect cells (baculovirus, pVL1393)
T2 sequence (Q05769 18-604 V335I): T1 sequence (Q05769 18-604 V335L) with L318I
Protocol: as §1, §2

wild type mCOX-2 = target: T3, wild type mCOX-2 (Mus musculus, UniProt Q05769); test: Activity recovery assay (reversibility of COX inhibition); assay type: biochemical, murine; settings: 10 μM inhibitor, 50 μM AA
T3 construct: made in house; host or cells: Sf9 insect cells (baculovirus, pVL1393)
T3 sequence (Q05769 18-604): T1 sequence (Q05769 18-604 V335L) with L318V
Protocol: (§3) The reversibility of the second step in equation (1) could be directly evaluated by the amount of enzyme activity recovered after a prolonged incubation time with substrate. […] The enzymes were pre-incubated for 20 minutes with DMSO or 10 μM INDO, prior to the addition of 50 μM AA. After addition of AA, the oxygenation reactions were allowed to proceed for varying lengths of time. As the reaction time increased, the extent of inhibition decreased if INDO binding was reversible. The time course for recovery of AA oxygenation was fit to a single exponential (FIG. 3A).
(§4) The reversibility of DM-INDO inhibition was evaluated similarly to INDO using the activity recovery assay (FIG. 3). The experiments and analysis were performed as described above.

mCOX-2^V349I [2] = target: T2, mCOX-2^V349I; test: as above; assay type: biochemical, murine; settings: 10 μM inhibitor, 50 μM AA
Protocol: as §3, §4

[3] = fluorescence increase from competition with 50 μM AA

For `COc1ccc2c(c1)c(CC(=O)O)cn2C(=O)c1ccc(Cl)cc1` [DM-INDO, 2-Des-methylindomethacin], the “k′−2^b” value (mCOX-2^V349L; [3]) was 0.006 ± 0.001 s⁻¹, the Kd (mCOX-2^V349L; fluorescence quenching) was 34 ± 19 µM and the “k′2” value (mCOX-2^V349L; fluorescence quenching) was 0.05 ± 0.01 s⁻¹. The “k′−2” value (mCOX-2^V349L; fluorescence quenching (decay)) was 0.003 ± 0.002 s⁻¹, the “k′−2^b” value (mCOX-2^V349I [1]; [3]) was 0.005 ± 0.001 s⁻¹ and the Kd (mCOX-2^V349I [1]; fluorescence quenching) was 12 ± 5 µM. The “k′2” value (mCOX-2^V349I [1]; fluorescence quenching) was 0.09 ± 0.01 s⁻¹, the “k′−2” value (mCOX-2^V349I [1]; fluorescence quenching (decay)) was 0.003 ± 0.002 s⁻¹ and the “K−2^b (rate constant determined by reversible inhibition)” value (wild type mCOX-2) was 0.023 ± 0.001 s⁻¹. For the same molecule, the “K−2^b (rate constant determined by reversible inhibition)” value (mCOX-2^V349I [2]) was 0.015 ± 0.005 s⁻¹.
